# Assay results: ChEMBL document CHEMBL1201862, “PubChem BioAssay data set” (2004)
# Activity calls are given as the source filed them.
# Tests used:
# Paired box protein Pax-8 = Paired box protein Pax-8 (Homo sapiens, UniProt Q06710); assay: inhibitors of PAX8-driven TPO luciferase reporter, dose response, RMG-I cells, cherry-pick (AID 687027); assay type: functional, cell-based;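 further: luciferase reporter driven by Pax8 target thyroperoxidase promoter measured by SteadyGlo luminescence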
# [1] = cytotoxicity in OVCAR8 ovarian cancer cells, dose response, PAX8 project, cell-based, plate reader, dry powder samples (AID 743197); assay type: functional; details: OVCAR-8
# [2] = molecular target: DNA dC->dU-editing enzyme APOBEC-3G (Homo sapiens, UniProt Q9HC16); assay: Dose Response confirmation of small molecule APOBEC3G DNA Deaminase Inhibitors via a fluorescence-based single-stranded DNA deaminase assay. [Related pubchem assays (depositor defined):AID493012, AID493028]; assay type: functional
# DNA dC->dU-editing enzyme APOBEC-3G, sequence (Q9HC16 whole entry): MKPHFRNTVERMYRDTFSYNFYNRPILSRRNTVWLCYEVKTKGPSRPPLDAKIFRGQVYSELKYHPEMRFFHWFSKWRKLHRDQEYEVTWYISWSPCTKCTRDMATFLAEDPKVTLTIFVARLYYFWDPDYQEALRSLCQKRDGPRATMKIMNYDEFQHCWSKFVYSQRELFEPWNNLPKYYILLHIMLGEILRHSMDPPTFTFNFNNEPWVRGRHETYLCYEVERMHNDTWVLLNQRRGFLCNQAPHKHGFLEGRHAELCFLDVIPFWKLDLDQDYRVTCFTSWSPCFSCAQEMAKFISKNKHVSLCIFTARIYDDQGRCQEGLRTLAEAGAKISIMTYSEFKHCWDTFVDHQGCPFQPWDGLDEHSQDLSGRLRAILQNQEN
# [3] = molecular target: T1, High affinity choline transporter 1 (Homo sapiens, UniProt Q9GZV3); assay: CHT inhibitors, dose response, cell-based, 5-point CRC, membrane potential dye (AID 504840); assay type: functional
# T1 sequence (Q9GZV3 whole entry): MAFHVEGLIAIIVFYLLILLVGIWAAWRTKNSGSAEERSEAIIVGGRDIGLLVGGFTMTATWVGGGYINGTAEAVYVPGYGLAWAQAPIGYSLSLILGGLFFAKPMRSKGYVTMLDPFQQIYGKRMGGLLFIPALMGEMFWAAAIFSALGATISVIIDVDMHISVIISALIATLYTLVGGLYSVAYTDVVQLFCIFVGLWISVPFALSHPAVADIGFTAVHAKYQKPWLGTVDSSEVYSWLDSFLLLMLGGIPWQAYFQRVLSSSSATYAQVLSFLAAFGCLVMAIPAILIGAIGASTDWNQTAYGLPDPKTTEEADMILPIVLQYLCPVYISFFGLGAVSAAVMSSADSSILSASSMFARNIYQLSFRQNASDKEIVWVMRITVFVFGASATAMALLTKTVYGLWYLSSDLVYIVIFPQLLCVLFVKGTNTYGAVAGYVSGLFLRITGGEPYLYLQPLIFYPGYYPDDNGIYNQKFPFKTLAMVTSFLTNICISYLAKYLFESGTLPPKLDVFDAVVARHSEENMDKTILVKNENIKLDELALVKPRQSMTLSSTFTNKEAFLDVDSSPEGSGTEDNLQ
# [4] = HEp-2 cell cytotoxicity, dose response, cytotoxicity control for RSV inhibitor project, HTS (AID 2410); assay type: functional; details: human respiratory syncytial virus
# [5] = Luminescence Cell-Based Dose Response HTS to Identify Activators of Luciferase Translation or Activity in H4 […] Cells. [Related pubchem assays: 1829 (Project Summary), 1814 (Primary HTS)]; assay type: functional
# H4 = assay: Luminescence Cell-Based Dose Response HTS to Identify Activators of 5'UTR Stem-Loop Driven Prion Protein mRNA Translation in H4 Neuroglioblastoma Cells. [Related pubchem assays: 1829 (Project Summary), 1814 (Primary HTS)]; assay type: functional; details: Homo sapiens
# HeLa = assay: HeLa cell cytotoxicity, dose response, cytotoxicity control for MITF activator project, CellTiter-Glo luminescence, cherry-pick samples (AID 540259); assay type: functional, cell-based; details: Homo sapiens
# [6] = molecular target: Induced myeloid leukemia cell differentiation protein Mcl-1 (Homo sapiens, UniProt Q07820); assay type: functional
# Induced myeloid leukemia cell differentiation protein Mcl-1, sequence (Q07820 whole entry): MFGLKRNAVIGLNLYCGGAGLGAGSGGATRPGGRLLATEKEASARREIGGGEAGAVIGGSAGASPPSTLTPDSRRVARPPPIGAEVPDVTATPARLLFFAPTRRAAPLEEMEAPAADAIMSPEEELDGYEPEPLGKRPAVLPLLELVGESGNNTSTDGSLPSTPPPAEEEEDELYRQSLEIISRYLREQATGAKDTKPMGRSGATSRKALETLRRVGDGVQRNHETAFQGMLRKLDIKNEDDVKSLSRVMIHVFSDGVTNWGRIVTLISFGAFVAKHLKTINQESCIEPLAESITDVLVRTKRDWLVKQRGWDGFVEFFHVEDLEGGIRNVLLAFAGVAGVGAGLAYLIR
# Caspase-3 = molecular target: T2, Caspase-3 (Homo sapiens, UniProt P42574); assay type: functional;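 further: Dose-response selectivity test against caspase-3 for candidate inhibitors of sentrin-specific proteases (SENPs)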
# T2 sequence (P42574 whole entry): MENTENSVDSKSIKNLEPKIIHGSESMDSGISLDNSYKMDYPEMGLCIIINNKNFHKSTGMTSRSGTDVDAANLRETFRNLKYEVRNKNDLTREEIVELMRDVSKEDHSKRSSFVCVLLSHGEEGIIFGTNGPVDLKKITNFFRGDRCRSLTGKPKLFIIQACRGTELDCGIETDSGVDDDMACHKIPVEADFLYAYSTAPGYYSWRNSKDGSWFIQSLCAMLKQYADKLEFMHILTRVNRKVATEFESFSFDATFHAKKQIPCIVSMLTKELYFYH
# [7] = molecular target: T3, Sentrin-specific protease 7 (Homo sapiens, UniProt Q9BQF6); assay type: functional;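 further: Luminescence-based dose-response confirmation of ultra-high-throughput screening hits, measuring inhibition of SENP7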
# T3 sequence (Q9BQF6 whole entry): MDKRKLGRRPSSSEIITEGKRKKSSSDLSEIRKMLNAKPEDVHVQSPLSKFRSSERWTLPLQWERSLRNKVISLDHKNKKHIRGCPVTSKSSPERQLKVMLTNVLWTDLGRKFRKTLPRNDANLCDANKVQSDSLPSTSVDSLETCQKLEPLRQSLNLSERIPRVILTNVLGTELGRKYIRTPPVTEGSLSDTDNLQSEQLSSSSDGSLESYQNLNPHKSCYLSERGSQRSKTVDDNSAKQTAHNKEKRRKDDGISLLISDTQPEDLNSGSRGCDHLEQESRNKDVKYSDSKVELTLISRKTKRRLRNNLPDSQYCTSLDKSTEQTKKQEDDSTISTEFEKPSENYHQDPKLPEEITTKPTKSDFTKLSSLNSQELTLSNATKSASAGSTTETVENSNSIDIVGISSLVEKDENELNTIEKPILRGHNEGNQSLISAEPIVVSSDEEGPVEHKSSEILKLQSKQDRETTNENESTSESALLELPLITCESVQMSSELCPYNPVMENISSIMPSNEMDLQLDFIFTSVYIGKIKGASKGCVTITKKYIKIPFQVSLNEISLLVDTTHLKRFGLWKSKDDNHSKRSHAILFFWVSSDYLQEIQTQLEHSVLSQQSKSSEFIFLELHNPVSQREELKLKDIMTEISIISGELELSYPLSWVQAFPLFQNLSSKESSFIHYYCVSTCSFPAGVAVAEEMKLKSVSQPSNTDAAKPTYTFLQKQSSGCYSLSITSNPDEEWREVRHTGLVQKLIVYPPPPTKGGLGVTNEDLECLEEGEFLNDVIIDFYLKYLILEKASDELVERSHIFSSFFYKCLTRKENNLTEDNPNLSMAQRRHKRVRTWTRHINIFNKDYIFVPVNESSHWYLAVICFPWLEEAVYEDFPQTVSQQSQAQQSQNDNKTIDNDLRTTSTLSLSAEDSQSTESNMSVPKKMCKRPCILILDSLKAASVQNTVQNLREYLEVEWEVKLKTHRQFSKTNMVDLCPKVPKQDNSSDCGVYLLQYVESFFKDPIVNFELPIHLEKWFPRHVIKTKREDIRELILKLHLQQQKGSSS
# [8] = molecular target: T4, Sentrin-specific protease 6 (Homo sapiens, UniProt Q9GZR1); assay type: functional;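 further: Luminescence-based dose-response confirmatory assay of SENP6 inhibition, following up an ultra-high-throughput screen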
# T4 sequence (Q9GZR1 whole entry): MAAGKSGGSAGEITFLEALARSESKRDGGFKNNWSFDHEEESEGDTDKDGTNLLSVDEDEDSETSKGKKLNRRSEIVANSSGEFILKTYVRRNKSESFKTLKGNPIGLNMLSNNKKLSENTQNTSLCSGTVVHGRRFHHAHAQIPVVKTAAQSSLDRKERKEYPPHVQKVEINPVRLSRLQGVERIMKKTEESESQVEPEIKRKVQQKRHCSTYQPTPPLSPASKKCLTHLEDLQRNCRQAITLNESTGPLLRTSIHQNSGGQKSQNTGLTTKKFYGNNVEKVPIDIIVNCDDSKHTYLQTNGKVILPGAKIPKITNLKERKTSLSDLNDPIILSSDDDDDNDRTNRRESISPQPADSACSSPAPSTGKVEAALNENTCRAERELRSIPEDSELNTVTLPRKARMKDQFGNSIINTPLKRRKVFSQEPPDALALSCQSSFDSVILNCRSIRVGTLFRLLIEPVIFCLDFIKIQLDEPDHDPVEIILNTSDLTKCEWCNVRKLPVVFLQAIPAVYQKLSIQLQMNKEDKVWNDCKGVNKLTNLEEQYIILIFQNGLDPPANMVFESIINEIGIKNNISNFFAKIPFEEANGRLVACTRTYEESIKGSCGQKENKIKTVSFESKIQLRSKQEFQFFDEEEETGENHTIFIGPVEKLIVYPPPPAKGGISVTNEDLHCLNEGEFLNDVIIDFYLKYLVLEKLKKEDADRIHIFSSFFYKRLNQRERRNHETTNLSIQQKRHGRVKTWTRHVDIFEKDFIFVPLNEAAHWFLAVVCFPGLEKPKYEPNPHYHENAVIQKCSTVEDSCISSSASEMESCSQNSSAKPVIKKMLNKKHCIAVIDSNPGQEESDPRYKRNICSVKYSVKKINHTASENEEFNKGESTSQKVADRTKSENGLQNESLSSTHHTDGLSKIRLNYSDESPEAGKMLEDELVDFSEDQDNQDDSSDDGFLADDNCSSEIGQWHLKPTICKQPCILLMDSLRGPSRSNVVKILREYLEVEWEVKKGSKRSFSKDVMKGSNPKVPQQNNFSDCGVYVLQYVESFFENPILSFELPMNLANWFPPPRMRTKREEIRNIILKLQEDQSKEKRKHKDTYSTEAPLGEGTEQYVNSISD
# [9] = molecular target: T5, Sentrin-specific protease 8 (Homo sapiens, UniProt Q96LD8); assay type: functional;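 further: luminescence read-out of SENP8 inhibition, dose-response confirmation following an ultra-high-throughput screen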
# T5 sequence (Q96LD8 whole entry): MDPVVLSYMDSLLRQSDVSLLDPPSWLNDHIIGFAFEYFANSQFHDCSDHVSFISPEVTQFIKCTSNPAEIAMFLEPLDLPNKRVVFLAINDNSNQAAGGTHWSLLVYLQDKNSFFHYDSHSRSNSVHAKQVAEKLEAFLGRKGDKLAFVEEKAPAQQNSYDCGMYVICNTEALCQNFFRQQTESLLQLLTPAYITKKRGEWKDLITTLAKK
# [10] = tested on: Streptococcus sp. 'group A'; assay: growth inhibition of control SK(-) GAS strain, dose response, counter-screen for streptokinase expression inhibitor project, luminescence, kanamycin, BacTiterGlo, confirmation (AID 1900); assay type: functional, organism-based
# Streptococcus = assay: Group A Streptococcus viability loss, dose response, counter-screen for streptokinase expression inhibitor project, luminescence, BacTiterGlo (AID 1915); assay type: functional, organism-based;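 further: potency for reduction of bacterial viability or growth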
# HEK293 = assay: inhibitors of LMP1-driven NF-kB reporter, dose response, cell-based, HEK293, luciferase, cherry-pick (AID 588343); assay type: functional; details: Homo sapiens
# Vero = assay: cells; assay type: functional; details: Chlorocebus sabaeus
# [11] = molecular target: T6, Polyadenylate-binding protein 1 (Homo sapiens, UniProt P11940); assay: PABP1 MLLE–PAM2 interaction inhibitors, dose response, miRNA deadenylation inhibitor project, biochemical, fluorescence polarization, Cy5-PAM2 peptide, secondary (AID 602260); assay type: functional; details: read-out: IC50_Mean
# T6 sequence (P11940 whole entry): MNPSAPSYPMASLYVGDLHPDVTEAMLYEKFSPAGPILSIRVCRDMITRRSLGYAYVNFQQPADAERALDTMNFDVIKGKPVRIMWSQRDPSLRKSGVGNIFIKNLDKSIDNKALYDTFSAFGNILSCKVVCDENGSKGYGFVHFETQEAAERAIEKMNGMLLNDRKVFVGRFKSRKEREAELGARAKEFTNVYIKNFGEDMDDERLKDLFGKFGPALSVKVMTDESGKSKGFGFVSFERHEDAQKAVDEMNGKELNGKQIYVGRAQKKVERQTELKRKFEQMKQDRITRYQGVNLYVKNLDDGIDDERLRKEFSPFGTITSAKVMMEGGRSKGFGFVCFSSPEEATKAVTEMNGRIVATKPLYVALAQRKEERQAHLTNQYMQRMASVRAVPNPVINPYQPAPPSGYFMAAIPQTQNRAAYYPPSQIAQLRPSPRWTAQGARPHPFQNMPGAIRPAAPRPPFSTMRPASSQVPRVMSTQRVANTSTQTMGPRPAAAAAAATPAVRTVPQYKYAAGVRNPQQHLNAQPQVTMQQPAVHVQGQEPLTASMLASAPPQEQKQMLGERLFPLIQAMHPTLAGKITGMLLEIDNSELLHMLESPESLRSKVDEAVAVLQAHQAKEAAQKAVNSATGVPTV
# [12] = molecular target: T6, Polyadenylate-binding protein 1; assay: PABP1 MLLE–PAM2 binding inhibitor potency, dose response, biochemical, fluorescence polarization, FITC-PAM2 peptide (AID 602259); assay type: functional; details: read-out: IC50_Mean
# Paired box protein Pax-8, sequence (Q06710 whole entry): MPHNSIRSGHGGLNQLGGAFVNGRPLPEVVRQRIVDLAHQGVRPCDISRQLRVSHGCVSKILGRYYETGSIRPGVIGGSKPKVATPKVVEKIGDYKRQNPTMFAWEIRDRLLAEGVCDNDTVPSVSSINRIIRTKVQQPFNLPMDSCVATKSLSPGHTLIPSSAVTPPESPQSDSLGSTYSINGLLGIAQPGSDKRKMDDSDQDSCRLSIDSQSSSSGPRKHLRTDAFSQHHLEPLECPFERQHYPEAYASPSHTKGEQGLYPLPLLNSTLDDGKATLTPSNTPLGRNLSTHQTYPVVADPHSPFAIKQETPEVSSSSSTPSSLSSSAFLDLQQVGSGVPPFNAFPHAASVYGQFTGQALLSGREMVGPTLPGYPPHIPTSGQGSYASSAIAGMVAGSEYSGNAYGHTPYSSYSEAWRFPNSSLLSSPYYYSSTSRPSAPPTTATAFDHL
smiles,measurement,setting,value
COc1ccc(-c2ccc3c(c2)[C@@H]2[C@@H](CCN2C(=O)C2CCCC2)[C@H](CO)N3C)cc1,AC50,Paired box protein Pax-8,14.2 µM (active)
same,AC50,[1],> 70 µM (inactive)
O=C(O)CC(Sc1nnc(S)s1)C(=O)O (stereo not drawn),IC50,[2],45.1 µM (active)
CCn1c(S)nnc1CCCCc1nnc(S)n1CC,IC50,[2],25.8 µM (active)
C[C@@H]1CN([C@@H](C)CO)C(=O)c2cc(NS(=O)(=O)c3ccc(F)cc3)ccc2O[C@@H]1CN(C)Cc1ccc(C(F)(F)F)cc1,AC50,Paired box protein Pax-8,15.3 µM (active)
same,AC50,[1],49.5 µM (active)
O=C(N/N=C/C1CC=CCC1)c1cc(-c2cccnc2)nc2ccccc12 (stereo not drawn),IC50,[3],15.1 µM (active)
COc1ccccc1-c1cnn2c(NC3CCCC3)cc(C)nc12,CC50,[4],40 µM (active)
same,EC50,[5],0.139 µM (active)
same,EC50,H4,16.2 µM (active)
same,AC50,HeLa,117 µM (active)
Cn1c(SCc2ccccc2Cl)nc2ccccc21,AC50,HeLa,75 µM (active)
COc1ccc(NC(C)=O)cc1S(=O)(=O)Nc1ccccc1C(=O)NCCc1ccccc1,EC50,[5],0.519 µM (active)
same,EC50,H4,50.7 µM (active)
same,AC50,HeLa,230 µM (active)
CC1=C(C(=O)OCC(C)C)C(c2ccsc2)NC(=O)N1 (stereo not drawn),IC50,[6],2.4 µM (not active)
Cc1nc(C(C)NC(=O)CCc2nnc(CCCc3ccccc3)o2)c(C)s1 (stereo not drawn),AC50,HeLa,314 µM (active)
Cc1ccccc1-c1nc2sc3c(c2c(=O)o1)CCC3,IC50,Caspase-3,1.73 µM (active)
same,IC50,[7],2.23 µM (active)
same,IC50,[8],3.42 µM (active)
same,IC50,[9],> 100 µM (inactive)
COc1cccc(CN(C)C(=O)c2ccc(COc3ccc(Cl)cc3)cc2)c1OC,AC50,HeLa,54.8 µM (active)
COc1ccc(N2C(=O)CC(Sc3n[nH]c(-c4ccc(C)cc4)n3)C2=O)cc1 (stereo not drawn),IC50,[2],21.2 µM (active)
CN1c2ccc(-c3cccc(F)c3)cc2[C@@H]2[C@@H](CCN2C(=O)Cc2ccccc2)[C@@H]1CO,AC50,Paired box protein Pax-8,10.2 µM (active)
same,AC50,[1],> 70 µM (inactive)
O=c1c2ccccc2nnn1CSc1nc2sc3c(c2c(=O)n1CC1CCCO1)CCC3 (stereo not drawn),IC50,[3],15.8 µM (active)
Cc1ccc(-n2nc3ccc(NC(=O)C(C)C)cc3n2)cc1,AC50,HeLa,54.8 µM (active)
Cc1ccc(SCC2=NN(c3nc(C)cc(C)n3)C(=O)C2)cc1,IC50,[3],10.5 µM (active)
COc1cc(SC)ccc1C(=O)N1CCN(c2ccccc2)CC1,IC50,[6],< 0.4 µM (not active)
CCOC(=O)c1c(C)oc2c1c(C(c1ccncc1)N1CCOCC1)c(O)c1ccccc12 (stereo not drawn),IC50,[6],1.16 µM (active)
Cc1ccc(-c2cccc(CN3CCN(C(C)C)C(CCO)C3)c2)o1 (stereo not drawn),IC50,[3],7.85 µM (active)
C=CCn1c(O)c(N=NC(S)=Nc2ccccc2F)c2ccccc21,EC50,[10],0.628 µM (active)
same,EC50,Streptococcus,1.08 µM (active)
same,AC50,HEK293,2.88 µM (active)
same,CC50,Vero,18.2 µM (active)
same,IC50,[11],> 66 µM (inactive)
same,IC50,[12],> 66 µM (inactive)
CC(C)OC(=O)Cn1cnc2ccc(Br)cc2c1=O,IC50,[6],24.1 µM (not active)
